Reference: patent publication US20240279240A1, “HETEROCYCLIC DERIVATIVES AS JANUS KINASE INHIBITORS” (CHIESI FARMACEUTICI S.P.A., priority 2021, published 2024)

What was measured:
[1] = molecular target: JAK 1 (Homo sapiens, UniProt P23458); assay: Biochemical potency on JAK1, TR-FRET LANCE Ultra kinase assay (examples 1-99); conditions: ATP at Km (20 μM), read-out: JAK1 inhibitory activity (pIC50 class) (converted)
Method in brief: (§1)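 Inhibition of each JAK family kinase is measured as loss of phosphotyrosine signal on a ULight peptide, detected by Eu-PT66 antibody (final 0.5 nM) via time-resolved FRET. ATP sits near Km for each isoform. Dose–response spans 20 μM downward in 5-fold steps, 11 points.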

[2] = molecular target: JAK 2 (Homo sapiens, UniProt O60674); assay: Biochemical potency on JAK2, TR-FRET LANCE Ultra kinase assay (examples 1-99); conditions: ATP at Km (0.7 μM), read-out: JAK2 inhibitory activity (pIC50 class) (converted)
Chain of JAK 2 (O60674 whole entry): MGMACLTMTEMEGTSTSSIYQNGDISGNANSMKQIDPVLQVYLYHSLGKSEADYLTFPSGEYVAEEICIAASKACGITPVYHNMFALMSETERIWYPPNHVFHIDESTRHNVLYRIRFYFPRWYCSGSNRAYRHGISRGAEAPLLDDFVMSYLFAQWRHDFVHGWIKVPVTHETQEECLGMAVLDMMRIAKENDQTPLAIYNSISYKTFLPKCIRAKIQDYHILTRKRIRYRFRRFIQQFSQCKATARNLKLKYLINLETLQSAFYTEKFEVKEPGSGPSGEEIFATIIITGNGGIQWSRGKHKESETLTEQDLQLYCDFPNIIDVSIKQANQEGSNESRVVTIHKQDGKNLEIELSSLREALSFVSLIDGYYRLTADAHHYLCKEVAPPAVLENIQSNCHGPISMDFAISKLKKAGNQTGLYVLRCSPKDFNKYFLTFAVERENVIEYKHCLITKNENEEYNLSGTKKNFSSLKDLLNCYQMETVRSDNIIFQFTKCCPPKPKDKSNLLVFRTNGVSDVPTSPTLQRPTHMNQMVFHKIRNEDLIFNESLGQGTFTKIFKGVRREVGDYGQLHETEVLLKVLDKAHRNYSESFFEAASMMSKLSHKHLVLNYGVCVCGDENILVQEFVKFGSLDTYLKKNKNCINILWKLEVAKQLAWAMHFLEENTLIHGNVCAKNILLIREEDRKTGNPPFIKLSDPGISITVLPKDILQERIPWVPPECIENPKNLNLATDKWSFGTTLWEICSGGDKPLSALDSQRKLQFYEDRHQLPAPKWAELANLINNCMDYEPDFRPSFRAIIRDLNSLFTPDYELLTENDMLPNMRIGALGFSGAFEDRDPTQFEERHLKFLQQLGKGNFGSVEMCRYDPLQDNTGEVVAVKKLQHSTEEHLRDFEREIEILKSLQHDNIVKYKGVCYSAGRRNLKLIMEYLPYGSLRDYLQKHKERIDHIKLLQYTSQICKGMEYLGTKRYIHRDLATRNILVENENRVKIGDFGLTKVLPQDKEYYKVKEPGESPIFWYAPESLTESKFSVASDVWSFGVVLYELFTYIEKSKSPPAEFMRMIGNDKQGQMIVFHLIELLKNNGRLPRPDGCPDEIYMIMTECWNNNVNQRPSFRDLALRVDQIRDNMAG
Method in brief: as §1

[3] = molecular target: T1, JAK 3 (Homo sapiens, UniProt P52333); assay: Biochemical potency on JAK3, TR-FRET LANCE Ultra kinase assay (examples 1-99); conditions: ATP at Km (0.2 μM), read-out: JAK3 inhibitory activity (pIC50 class) (converted)
T1 sequence (P52333 1-1124): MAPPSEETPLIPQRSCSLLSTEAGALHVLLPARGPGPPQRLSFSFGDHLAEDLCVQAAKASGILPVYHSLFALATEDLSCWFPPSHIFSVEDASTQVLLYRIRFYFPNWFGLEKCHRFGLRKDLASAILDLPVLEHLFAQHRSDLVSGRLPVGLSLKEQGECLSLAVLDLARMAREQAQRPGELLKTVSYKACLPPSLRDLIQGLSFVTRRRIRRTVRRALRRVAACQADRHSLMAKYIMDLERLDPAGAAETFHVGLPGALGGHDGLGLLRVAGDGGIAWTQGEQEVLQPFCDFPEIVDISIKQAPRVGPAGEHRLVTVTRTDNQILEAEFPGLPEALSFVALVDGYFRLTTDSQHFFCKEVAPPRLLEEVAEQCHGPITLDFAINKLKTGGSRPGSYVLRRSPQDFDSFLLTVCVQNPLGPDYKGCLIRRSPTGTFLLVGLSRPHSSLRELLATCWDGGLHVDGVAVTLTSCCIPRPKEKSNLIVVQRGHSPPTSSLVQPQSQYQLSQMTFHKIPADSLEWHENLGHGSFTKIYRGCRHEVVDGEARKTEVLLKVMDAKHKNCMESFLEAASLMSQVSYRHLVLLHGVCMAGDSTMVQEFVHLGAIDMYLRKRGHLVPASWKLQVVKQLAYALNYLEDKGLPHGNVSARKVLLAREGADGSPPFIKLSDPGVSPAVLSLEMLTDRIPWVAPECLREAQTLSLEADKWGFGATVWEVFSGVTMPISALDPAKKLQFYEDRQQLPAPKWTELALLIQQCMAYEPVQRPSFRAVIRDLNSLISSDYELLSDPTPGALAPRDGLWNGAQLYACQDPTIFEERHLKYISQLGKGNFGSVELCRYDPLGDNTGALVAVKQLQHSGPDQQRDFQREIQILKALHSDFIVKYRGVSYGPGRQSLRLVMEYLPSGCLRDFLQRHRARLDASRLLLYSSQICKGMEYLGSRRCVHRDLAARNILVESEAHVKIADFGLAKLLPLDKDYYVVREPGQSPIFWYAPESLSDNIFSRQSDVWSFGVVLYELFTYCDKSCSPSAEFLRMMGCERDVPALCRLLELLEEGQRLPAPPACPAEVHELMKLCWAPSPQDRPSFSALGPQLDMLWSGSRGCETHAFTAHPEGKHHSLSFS
Method in brief: as §1

[4] = molecular target: TYK2 (Homo sapiens, UniProt P29597); assay: Biochemical potency on Tyk2, TR-FRET LANCE Ultra kinase assay (examples 1-99); conditions: ATP at Km (12 μM), read-out: Tyk2 inhibitory activity (pIC50 class) (converted)
Chain of TYK2 (P29597 whole entry): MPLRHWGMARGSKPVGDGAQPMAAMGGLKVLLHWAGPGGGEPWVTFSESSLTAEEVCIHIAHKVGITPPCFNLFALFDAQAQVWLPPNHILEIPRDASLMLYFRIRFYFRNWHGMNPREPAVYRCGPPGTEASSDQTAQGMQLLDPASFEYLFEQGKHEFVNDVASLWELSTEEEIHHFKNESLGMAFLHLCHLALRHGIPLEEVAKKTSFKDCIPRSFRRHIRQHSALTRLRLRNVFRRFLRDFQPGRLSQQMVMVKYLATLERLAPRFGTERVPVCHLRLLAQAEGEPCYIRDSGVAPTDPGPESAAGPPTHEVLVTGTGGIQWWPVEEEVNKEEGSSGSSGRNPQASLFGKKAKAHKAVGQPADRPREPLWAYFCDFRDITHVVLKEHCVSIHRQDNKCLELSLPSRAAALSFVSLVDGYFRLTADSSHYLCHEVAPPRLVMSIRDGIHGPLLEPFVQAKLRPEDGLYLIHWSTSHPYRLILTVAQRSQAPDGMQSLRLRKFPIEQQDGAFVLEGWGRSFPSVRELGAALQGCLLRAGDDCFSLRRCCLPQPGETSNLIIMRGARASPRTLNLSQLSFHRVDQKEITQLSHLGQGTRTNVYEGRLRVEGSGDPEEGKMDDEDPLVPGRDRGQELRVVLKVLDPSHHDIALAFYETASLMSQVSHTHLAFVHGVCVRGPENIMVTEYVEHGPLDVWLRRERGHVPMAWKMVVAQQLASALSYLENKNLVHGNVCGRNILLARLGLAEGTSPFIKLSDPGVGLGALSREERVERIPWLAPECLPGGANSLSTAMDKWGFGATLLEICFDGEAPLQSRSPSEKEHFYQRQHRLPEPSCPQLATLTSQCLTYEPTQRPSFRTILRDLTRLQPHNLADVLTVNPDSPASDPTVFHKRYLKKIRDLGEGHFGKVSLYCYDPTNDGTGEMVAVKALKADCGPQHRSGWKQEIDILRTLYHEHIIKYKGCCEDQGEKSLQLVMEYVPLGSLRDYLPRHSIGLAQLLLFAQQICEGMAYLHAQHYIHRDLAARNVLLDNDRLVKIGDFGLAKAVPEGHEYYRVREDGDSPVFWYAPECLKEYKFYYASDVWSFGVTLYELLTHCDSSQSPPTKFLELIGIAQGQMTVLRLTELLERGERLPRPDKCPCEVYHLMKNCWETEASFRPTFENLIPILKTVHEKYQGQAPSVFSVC
Method in brief: as §1

Chain of JAK 1 (P23458 whole entry, canonical isoform): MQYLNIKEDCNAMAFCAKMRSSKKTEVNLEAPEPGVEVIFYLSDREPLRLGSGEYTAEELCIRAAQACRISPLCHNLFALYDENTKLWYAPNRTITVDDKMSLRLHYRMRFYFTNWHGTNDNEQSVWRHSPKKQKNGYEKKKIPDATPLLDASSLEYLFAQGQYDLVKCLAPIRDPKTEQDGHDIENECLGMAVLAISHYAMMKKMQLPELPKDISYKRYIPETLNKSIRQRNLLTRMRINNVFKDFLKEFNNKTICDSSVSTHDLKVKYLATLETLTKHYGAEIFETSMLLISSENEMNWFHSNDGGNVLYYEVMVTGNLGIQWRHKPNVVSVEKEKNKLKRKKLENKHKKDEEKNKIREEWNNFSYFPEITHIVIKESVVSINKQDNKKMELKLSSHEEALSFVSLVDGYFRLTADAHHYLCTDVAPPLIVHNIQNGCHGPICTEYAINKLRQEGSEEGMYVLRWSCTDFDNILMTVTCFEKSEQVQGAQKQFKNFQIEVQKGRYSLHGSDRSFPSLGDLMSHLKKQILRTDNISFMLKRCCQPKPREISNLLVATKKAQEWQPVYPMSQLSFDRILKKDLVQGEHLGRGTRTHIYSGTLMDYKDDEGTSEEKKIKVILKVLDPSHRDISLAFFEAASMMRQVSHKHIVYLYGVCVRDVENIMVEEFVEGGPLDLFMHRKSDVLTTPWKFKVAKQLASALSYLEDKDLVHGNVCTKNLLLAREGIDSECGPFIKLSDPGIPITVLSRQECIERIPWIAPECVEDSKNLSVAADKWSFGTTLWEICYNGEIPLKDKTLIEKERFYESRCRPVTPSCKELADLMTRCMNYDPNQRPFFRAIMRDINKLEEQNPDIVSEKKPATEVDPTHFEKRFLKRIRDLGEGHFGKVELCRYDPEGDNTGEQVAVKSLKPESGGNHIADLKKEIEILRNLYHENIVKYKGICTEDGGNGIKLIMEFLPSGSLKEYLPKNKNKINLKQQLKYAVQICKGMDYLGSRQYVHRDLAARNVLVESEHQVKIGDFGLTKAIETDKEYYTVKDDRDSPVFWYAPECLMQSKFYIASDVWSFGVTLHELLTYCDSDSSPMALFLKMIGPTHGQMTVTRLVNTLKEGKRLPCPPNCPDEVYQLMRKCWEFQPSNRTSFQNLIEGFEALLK

Row | IC50 [1] [nM] | IC50 [2] [nM] | IC50 [3] [nM] | IC50 [4] [nM] | SMILES
1 | 5.01 to 50.1 | ≤ 5.01 | ≤ 5.01 | 5.01 to 50.1 | CSc1ccc(OC(F)F)c(-n2nc(NCCCN(C)C)c3cnc(-c4cnn5cccnc45)cc32)c1 [Example 46, N1-(1-(2-(difluoromethoxy)-5-(methylthio)phenyl)-6-(pyrazolo[1,5-a]pyrimidin-3-yl)-1H-pyrazolo[4,3-c]pyridin-3-yl)-N3,N3-dimethylpropane-1,3-diamine]
2 | 5.01 to 50.1 | 5.01 to 50.1 | 5.01 to 50.1 | > 50.1 | COc1ccc(Cl)cc1-n1nc(N2CCN(C(C)=O)CC2)c2cnc(-c3cnn4cccnc34)cc21 [Example 47, 1-(4-(1-(5-chloro-2-methoxyphenyl)-6-(pyrazolo[1,5-a]pyrimidin-3-yl)-1H-pyrazolo[4,3-c]pyridin-3-yl)piperazin-1-yl)ethan-1-one]
3 | 5.01 to 50.1 | 5.01 to 50.1 | 5.01 to 50.1 | 5.01 to 50.1 | COc1ccc(Cl)cc1-n1nc(N2CCNCC2)c2cnc(-c3cnn4cccnc34)cc21 [Example 48, 1-(5-chloro-2-methoxyphenyl)-3-(piperazin-1-yl)-6-(pyrazolo[1,5-a]pyrimidin-3-yl)-1H-pyrazolo[4,3-c]pyridine]
4 | 5.01 to 50.1 | 5.01 to 50.1 | 5.01 to 50.1 | 5.01 to 50.1 | COc1ccc(Cl)cc1-n1nc(N2CC(CO)C2)c2cnc(-c3cnn4cccnc34)cc21 [Example 49, (1-(1-(5-chloro-2-methoxyphenyl)-6-(pyrazolo[1,5-a]pyrimidin-3-yl)-1H-pyrazolo[4,3-c]pyridin-3-yl)azetidin-3-yl)methanol]
5 | 5.01 to 50.1 | 5.01 to 50.1 | 5.01 to 50.1 | 5.01 to 50.1 | COc1ccc(Cl)cc1-n1nc(OC)c2cnc(-c3cnn4cccnc34)cc21 [Example 50, 1-(5-chloro-2-methoxyphenyl)-3-methoxy-6-(pyrazolo[1,5-a]pyrimidin-3-yl)-1H-pyrazolo[4,3-c]pyridine]
6 | 5.01 to 50.1 | 5.01 to 50.1 | 5.01 to 50.1 | > 50.1 | COc1ccc(Cl)cc1-n1ncc2c(N(C)C)nc(-c3cnn4cccnc34)cc21 [Example 51, 1-(5-chloro-2-methoxyphenyl)-N,N-dimethyl-6-(pyrazolo[1,5-a]pyrimidin-3-yl)-1H-pyrazolo[4,3-c]pyridin-4-amine]
7 | > 50.1 | 5.01 to 50.1 | > 50.1 | > 50.1 | CNc1nc(-c2cnn3cccnc23)cc2c1cnn2-c1cc(Cl)ccc1OC [Example 52, 1-(5-chloro-2-methoxyphenyl)-N-methyl-6-(pyrazolo[1,5-a]pyrimidin-3-yl)-1H-pyrazolo[4,3-c]pyridin-4-amine]
8 | 5.01 to 50.1 | > 50.1 | > 50.1 | > 50.1 | COc1ccc(Cl)cc1-n1ncc2c(NCCNC(C)=O)nc(-c3cnn4cccnc34)cc21 [Example 53, N-(2-((1-(5-chloro-2-methoxyphenyl)-6-(pyrazolo[1,5-a]pyrimidin-3-yl)-1H-pyrazolo[4,3-c]pyridin-4-yl)amino)ethyl)acetamide]
9 | 5.01 to 50.1 | 5.01 to 50.1 | 5.01 to 50.1 | > 50.1 | CNC(=O)CNc1nc(-c2cnn3cccnc23)cc2c1cnn2-c1cc(Cl)ccc1OC [Example 54, 2-((1-(5-chloro-2-methoxyphenyl)-6-(pyrazolo[1,5-a]pyrimidin-3-yl)-1H-pyrazolo[4,3-c]pyridin-4-yl)amino)-N-methylacetamide]
10 | 5.01 to 50.1 | 5.01 to 50.1 | > 50.1 | > 50.1 | COc1ccc(Cl)cc1-n1ncc2c(NC(C)=O)nc(-c3cnn4cccnc34)cc21 [Example 55, N-(1-(5-chloro-2-methoxyphenyl)-6-(pyrazolo[1,5-a]pyrimidin-3-yl)-1H-pyrazolo[4,3-c]pyridin-4-yl)acetamide]
11 | 5.01 to 50.1 | 5.01 to 50.1 | 5.01 to 50.1 | 5.01 to 50.1 | COc1ccc(Cl)cc1-n1ncc2c(N)nc(-c3cnn4cccnc34)cc21 [Example 56, 1-(5-chloro-2-methoxyphenyl)-6-(pyrazolo[1,5-a]pyrimidin-3-yl)-1H-pyrazolo[4,3-c]pyridin-4-amine]
12 | 5.01 to 50.1 | ≤ 5.01 | 5.01 to 50.1 | 5.01 to 50.1 | COc1ccc(Cl)cc1-n1ncc2c(O)nc(-c3cnn4cccnc34)cc21 [Example 57, 1-(5-chloro-2-methoxyphenyl)-6-(pyrazolo[1,5-a]pyrimidin-3-yl)-1H-pyrazolo[4,3-c]pyridin-4-ol]
13 | ≤ 5.01 | ≤ 5.01 | ≤ 5.01 | 5.01 to 50.1 | COc1cc(O)c(F)cc1-n1nc(C)c2cnc(-c3cnn4cccnc34)cc21 [Example 58, 2-fluoro-5-methoxy-4-(3-methyl-6-(pyrazolo[1,5-a]pyrimidin-3-yl)-1H-pyrazolo[4,3-c]pyridin-1-yl)phenol]
14 | ≤ 5.01 | ≤ 5.01 | ≤ 5.01 | 5.01 to 50.1 | COc1cc(O)c(Cl)cc1-n1nc(C)c2cnc(-c3cnn4cccnc34)cc21 [Example 59, 2-chloro-5-methoxy-4-(3-methyl-6-(pyrazolo[1,5-a]pyrimidin-3-yl)-1H-pyrazolo[4,3-c]pyridin-1-yl)phenol]
15 | ≤ 5.01 | ≤ 5.01 | ≤ 5.01 | 5.01 to 50.1 | COc1cc(O)c(C)cc1-n1nc(C)c2cnc(-c3cnn4cccnc34)cc21 [Example 60, 5-methoxy-2-methyl-4-(3-methyl-6-(pyrazolo[1,5-a]pyrimidin-3-yl)-1H-pyrazolo[4,3-c]pyridin-1-yl)phenol]
16 | 5.01 to 50.1 | 5.01 to 50.1 | 5.01 to 50.1 | > 50.1 | COc1cnc(Cl)cc1-n1nc(C)c2cnc(-c3cnn4cccnc34)cc21 [Example 61, 1-(2-chloro-5-methoxypyridin-4-yl)-3-methyl-6-(pyrazolo[1,5-a]pyrimidin-3-yl)-1H-pyrazolo[4,3-c]pyridine]
17 | > 50.1 | 5.01 to 50.1 | 5.01 to 50.1 | > 50.1 | Cc1nn(-c2cc(Cl)ccc2CO)c2cc(-c3cnn4cccnc34)ncc12 [Example 62, (4-chloro-2-(3-methyl-6-(pyrazolo[1,5-a]pyrimidin-3-yl)-1H-pyrazolo[4,3-c]pyridin-1-yl)phenyl)methanol]
18 | ≤ 5.01 | ≤ 5.01 | ≤ 5.01 | 5.01 to 50.1 | Cc1nn(-c2cc(Br)ccc2OC(F)F)c2cc(-c3cnn4cccnc34)ncc12 [Example 63, 1-(5-bromo-2-(difluoromethoxy)phenyl)-3-methyl-6-(pyrazolo[1,5-a]pyrimidin-3-yl)-1H-pyrazolo[4,3-c]pyridine]
19 | 5.01 to 50.1 | ≤ 5.01 | ≤ 5.01 | 5.01 to 50.1 | Cc1nn(-c2cc(C#N)ccc2OC(F)F)c2cc(-c3cnn4cccnc34)ncc12 [Example 64, 4-(difluoromethoxy)-3-(3-methyl-6-(pyrazolo[1,5-a]pyrimidin-3-yl)-1H-pyrazolo[4,3-c]pyridin-1-yl)benzonitrile]
20 | 5.01 to 50.1 | 5.01 to 50.1 | ≤ 5.01 | 5.01 to 50.1 | Cc1ccc(OC(F)F)c(-n2nc(C)c3cnc(-c4cnn5cccnc45)cc32)c1 [Example 65, 1-(2-(difluoromethoxy)-5-methylphenyl)-3-methyl-6-(pyrazolo[1,5-a]pyrimidin-3-yl)-1H-pyrazolo[4,3-c]pyridine]
